# Reference: patent US20040253257A1, “Biological compositions and methods for treatment of liver cancer” (priority 2003, published 2004)
# Like-named read-outs stand apart in the source and are kept apart here.
# What was measured:
# human liver cancer [1] = assay: Swiss mouse model of human liver cancer, growth of tumors; details: 31st day from tumor inoculation; 30 days treatment; yeast 0.3 ml oral once per day, CTX 30 mg/kg iv once a week
# Excerpt: The animals were generally anaesthetized. […] Afterwards, the opening was sutured and the mice were put back into the cage.
# (§1) The mice injected with tumor cells were divided into 4 experimental groups of ten mice per group and one control group. The four experimental groups were triplicated (i.e., using a total of 120 mice in the experimental groups).
# (§2) The mice received the biological compositions, untreated yeast cells, CTX or saline on the same day as the tumor cells were transplanted. The mice in group CK2 also started receiving saline on the same day as the other four groups. The biological compositions, untreated yeast cells and saline were administered orally by a feeding tube and the CTX by intravenous injection for 30 consecutive days.
# Liver tumor H-22 [2] = assay: C3H mouse model of liver cancer (H-22), growth of tumors; details: 31st day from tumor inoculation; 30 days treatment; yeast 0.3 ml oral once per day, CTX 30 mg/kg iv per day
# Experimental: (§3) The biological composition comprising 10^8 cells per ml of activated and conditioned yeast cells of the strain Saccharomyces cerevisiae Hansen strain AS2.503 was prepared by the methods described in Section 5.1 and subsections therein.
# as §1, §2
# Liver tumor H-22 [3] = details: for Number of live animals remaining in the groups after 30 days of treatment: 30 mice per group
# Experimental: (§4) The survival time of mice after tumor injection and treatment was studied.
# as §3
# The animals were prepared in a similar manner as described in Section 8.1.
# (§5) The mice injected with tumor cells were divided into 4 experimental groups of […] per group and one control group. The four experimental groups were triplicated […]. In group 2AY, the mice received 0.3 ml of the biological composition once per day. In group 2NY, the mice received 0.3 ml of the untreated yeast cells once per day. In group 2CTX, the mice were injected intravenously with 30 mg of cyclophosphamide (CTX) per kg body weight per day. In group 2CK1, the mice received 0.3 ml of physiological saline once per day.
# as §2, with “2CK2” for “CK2”, “days. The mice were observed over 6 months from the day of their inoculation and survival was recorded.” for “days.”
# human liver cancer [4] = details: for Number of live animals remaining in the groups after 30 days of treatment: 30 mice per group
# Experimental: as §4
# The biological composition comprising […] of activated and conditioned yeast cells of the strain Saccharomyces cerevisiae Hansen strain AS2.503 was prepared by the methods described in Section 5.1 and subsections therein.
# The animals were prepared in a similar manner as described in Section 6.1.
# as §5, with “weight once a week for four weeks.” for “weight per day.”
# as §2, with “2CK2” for “CK2”, “days. The mice were observed over 6 months from the day of their inoculation and survival was recorded. The weight of the mice, the weight of the liver, and the weight of the tumor were determined by standard techniques.” for “days.”
# [5] = 0 month after cessation of treatment
# [6] = 1 month after cessation of treatment
# [7] = 2 months after cessation of treatment
# [8] = 3 months after cessation of treatment
# [9] = 4 months after cessation of treatment
# [10] = 5 months after cessation of treatment
# [11] = 6 months after cessation of treatment
# [12] = from injection of tumor cells, 30 days treatment
# [13] = mice that survived, observed over 6 months
smiles,measurement,setting,value
"O=P1(N(CCCl)CCCl)NCCCO1 (stereo not shown) [CTX, cyclophosphamide]",mean weight of liver and standard deviation,human liver cancer [1],"1,372 ± 8 mg"
same,mean weight of mice and standard deviation,human liver cancer [1],17 ± 0.9 g
same,mean weight of tumor nodules and standard deviation,human liver cancer [1],249 ± 9 mg
same,mean weight of liver and standard deviation,Liver tumor H-22 [2],"1,351 ± 9 mg"
same,mean weight of mice and standard deviation,Liver tumor H-22 [2],18.8 ± 0.7 g
same,mean weight of tumor nodules and standard deviation,Liver tumor H-22 [2],253 ± 8 mg
same,Number of live animals remaining in the groups after 30 days of treatment,Liver tumor H-22 [3]; [5],30
same,Number of live animals remaining in the groups after 30 days of treatment,Liver tumor H-22 [3]; [6],27
same,Number of live animals remaining in the groups after 30 days of treatment,Liver tumor H-22 [3]; [7],24
same,Number of live animals remaining in the groups after 30 days of treatment,Liver tumor H-22 [3]; [8],19
same,Number of live animals remaining in the groups after 30 days of treatment,Liver tumor H-22 [3]; [9],11
same,Number of live animals remaining in the groups after 30 days of treatment,Liver tumor H-22 [3]; [10],3
same,Number of live animals remaining in the groups after 30 days of treatment,Liver tumor H-22 [3]; [11],0
same,survival of mice bearing liver cancer cells,Liver tumor H-22 [3]; [12],all died after four months
same,mean weight of liver and standard deviation,Liver tumor H-22 [3]; [13],all animals dead
same,mean weight of mice and standard deviation,Liver tumor H-22 [3]; [13],all animals dead
same,mean weight of tumor nodules and standard deviation,Liver tumor H-22 [3]; [13],all animals dead
same,Number of live animals remaining in the groups after 30 days of treatment,human liver cancer [4]; [5],30
same,Number of live animals remaining in the groups after 30 days of treatment,human liver cancer [4]; [6],30
same,Number of live animals remaining in the groups after 30 days of treatment,human liver cancer [4]; [7],27
same,Number of live animals remaining in the groups after 30 days of treatment,human liver cancer [4]; [8],22
same,Number of live animals remaining in the groups after 30 days of treatment,human liver cancer [4]; [9],19
same,Number of live animals remaining in the groups after 30 days of treatment,human liver cancer [4]; [10],7
same,Number of live animals remaining in the groups after 30 days of treatment,human liver cancer [4]; [11],0
same,survival of mice bearing liver cancer cells,human liver cancer [4]; [12],all died after four months
same,mean weight of liver and standard deviation,human liver cancer [4]; [13],all animals dead
same,mean weight of mice and standard deviation,human liver cancer [4]; [13],all animals dead
same,mean weight of tumor nodules and standard deviation,human liver cancer [4]; [13],all animals dead
